{"source": "patent US9179682B2", "about": "“Biocides and apparatus” (A.Y. Laboratories Ltd., priority 2004, dated 2015)", "test": "Reduction of Na2S: total sulfur and sulfate after addition of oxidizer, Series 7", "details": "100 ml DI water with ~5 mg sodium sulfide; several days after addition of oxidizer", "description": "A series of containers each containing 100 ml DI water in which ˜5 mg of sodium sulfide was dissolved were prepared. To each container an appropriate amount of an oxidizer or a control solution was added as follows: • a. […] Monochloroamine (MCA) formed from ammonium sulfate and NaOCl (1:1 molar ratio, each component pre-diluted before mixing, 15 ppm as total chlorine). • d.\nSamples were analyzed for total sulfur and for sulfate several days after addition of oxidizer.", "data": [{"smiles": "O=N[O-].[Na+]", "note": "[Test A, NaNO2]", "values": [{"measurement": "% S remaining", "result": 100, "unit": "%"}]}]}
